Tested on: Serotonin (5-HT) uptake by rat brain synaptosome
Experiment: Serotonin (5-HT) uptake inhibitory activity by rat brain synaptosome
Type: biochemical
Details: test compound 300 nM; rat frontal cortex crude synaptosome; tritium labeled 5-HT 8 nM
Procedure: Measurement of Serotonin (5-HT) Uptake Inhibitory Activity of a Test Compound by Rat Brain Synaptosome
Wistar male rats were decapitated, the brain was retrieved and frontal cortex was dissected out, and it was homogenized in 0.32 M sucrose solution of a weight 20 times of the weight of the tissue using a Potter type homogenizer.
5-HT uptake reaction was performed in a volume of 200 μl using a 96-well round bottom plate and pargyline (final concentration 10 μM) and sodium ascorbate (final concentration 0.2 mg/ml) were contained in the incubation buffer upon reaction and used.
Incubation buffer (total counting), non-labeled 5-HT (final concentration 10 μM, non-specific counting) and the diluted test compound (final concentration 300 nM) were added to each well. One-tenth quantity of the final volume of the synaptosome fraction was added and after preincubated at 37° C. for 10 minutes, tritium labeled 5-HT solution (final concentration 8 nM) was added and uptake reaction was started at 37° C. The uptake time was 10 minutes and the reaction was terminated by vacuum filtration through a 96-well fiber glass filter paper plate, and after the filter paper was washed with cold normal saline, it was dried enough and Microscint0 (Perkin-Elmer) was added to the filter and remaining radioactivity on the filter was measured.

First: O=C1NCCc2cc(OCCCN3CCN(c4cccc5sccc45)CC3)ccc21 [Example 25, 6-[3-(4-benzo[b]thiophen-4-yl-piperazin-1-yl)propoxy]-3,4-dihydro-2H-isoquinolin-1-one]
Second: CN1CCc2cc(OCCCN3CCN(c4cccc5sccc45)CC3)ccc2C1=O [Example 26, 6-[3-(4-benzo[b]thiophen-4-yl-piperazin-1-yl)propoxy]-2-methyl-3,4-dihydro-2H-isoquinolin-1-one]
The “Serotonin uptake inhibitory ratio (%)(300 nM)” value of the first is lower: 91.9% for the first, 92.0% for the second.

First: Cc1cc(=O)[nH]c2cc(OCCCCN3CCN(c4cccc5sccc45)CC3)ccc12 [Example 4, 7-[4-(4-benzo[b]thiophen-4-yl-piperazin-1-yl)butoxy]-4-methyl-1H-quinolin-2-one]
Second: Cc1cc(=O)[nH]c2cc(OCCCN3CCN(c4cccc5sccc45)CC3)ccc12 [Example 3, 7-[3-(4-benzo[b]thiophen-4-yl-piperazin-1-yl)propoxy]-4-methyl-1H-quinolin-2-one]
The “Serotonin uptake inhibitory ratio (%)(300 nM)” value of the first is higher: 91.0% for the first, 84.8% for the second.

First: Cc1cc2ccc(OCCCN3CCN(c4cccc5sccc45)CC3)cc2[nH]c1=O [Example 5, 7-[3-(4-benzo[b]thiophen-4-yl-piperazin-1-yl)propoxy]-3-methyl-1H-quinolin-2-one]
Second: Cc1cc2ccc(OCCCCN3CCN(c4cccc5sccc45)CC3)cc2[nH]c1=O [Example 6, 7-[4-(4-benzo[b]thiophen-4-yl-piperazin-1-yl)butoxy]-3-methyl-1H-quinolin-2-one]
The “Serotonin uptake inhibitory ratio (%)(300 nM)” value of the first is lower: 89.1% for the first, 91.3% for the second.

First: O=c1[nH]c2ccccc2cc1OCCN1CCN(c2cccc3sccc23)CC1 [Example 2, 3-[2-(4-benzo[b]thiophen-4-yl-piperazin-1-yl)ethoxy]-1H-quinolin-2-one]
Second: O=c1[nH]ccc2cc(OCCCN3CCN(c4cccc5sccc45)CC3)ccc12 [Example 40, 6-[3-(4-benzo[b]thiophen-4-yl-piperazin-1-yl)propoxy]-2H-isoquinolin-1-one]
The “Serotonin uptake inhibitory ratio (%)(300 nM)” value of the first is lower: 78.8% for the first, 91.6% for the second.

Compared with `O=c1c2ccccc2ccn1CCCCN1CCN(c2cccc3sccc23)CC1` [Example 34, 2-[4-(4-benzo[b]thiophen-4-yl-piperazin-1-yl)butyl]-2H-isoquinolin-1-one], `O=C1c2ccccc2CCN1CCCCCN1CCN(c2cccc3sccc23)CC1` [Example 24, 2-[5-(4-benzo[b]thiophen-4-yl-piperazin-1-yl)pentyl]-3,4-dihydro-2H-isoquinolin-1-one] is higher in “Serotonin uptake inhibitory ratio (%)(300 nM)” value: 94.2% for the first, 97.5% for the second.

First: CC1CC(=O)Nc2cc(OCCCCN3CCN(c4cccc5sccc45)CC3)ccc21 (stereo not shown) [Example 16, 7-[4-(4-benzo[b]thiophen-4-yl-piperazin-1-yl)butoxy]-4-methyl-3,4-dihydro-1H-quinolin-2-one]
Second: O=C1CCc2cc(OCCCCN3CCN(c4cccc5sccc45)CC3)ccc2N1 [Example 20, 6-[4-(4-benzo[b]thiophen-4-yl-piperazin-1-yl)butoxy]-3,4-dihydro-1H-quinolin-2-one]
The “Serotonin uptake inhibitory ratio (%)(300 nM)” value of the first is lower: 86.7% for the first, 92.8% for the second.

Compared with `CCN1CCc2cc(OCCCN3CCN(c4cccc5sccc45)CC3)ccc2C1=O` [Example 27, 6-[3-(4-benzo[b]thiophen-4-yl-piperazin-1-yl)propoxy]-2-ethyl-3,4-dihydro-2H-isoquinolin-1-one], `O=C1CCc2ccc(OCCCN3CCN(c4cccc5sccc45)CC3)cc2N1` [Example 10, 7-[3-(4-benzo[b]thiophen-4-yl-piperazin-1-yl)propoxy]-3,4-dihydro-1H-quinolin-2-one] is lower in “Serotonin uptake inhibitory ratio (%)(300 nM)” value: 94.0% for the first, 92.6% for the second.

Going from `O=c1ccc2ccc(OCCCN3CCN(c4cccc5sccc45)CC3)cc2[nH]1` [Example 7, 7-[3-(4-benzo[b]thiophen-4-yl-piperazin-1-yl)propoxy]-1H-quinolin-2-one] to `O=c1ccc2ccc(OCCCCN3CCN(c4cccc5sccc45)CC3)cc2[nH]1` [Example 1, 7-[4-(4-benzo[b]thiophen-4-yl-piperazin-1-yl)butoxy]-1H-quinolin-2-one], the “Serotonin uptake inhibitory ratio (%)(300 nM)” value rises from 91.0% to 92.4%.

Compared with `O=C1CCc2ccc(OC/C=C/CN3CCN(c4cccc5sccc45)CC3)cc2N1` [Example 15, 7-[4-(4-benzo[b]thiophen-4-yl-piperazin-1-yl)-(E)-2-butenyloxy]-3,4-dihydro-1H-quinolin-2-one], `O=C1CCc2ccc(OC/C=C\CN3CCN(c4cccc5sccc45)CC3)cc2N1` [Example 13, 7-[4-(4-benzo[b]thiophen-4-yl-piperazin-1-yl)-(Z)-2-butenyloxy]-3,4-dihydro-1H-quinolin-2-one] is lower in “Serotonin uptake inhibitory ratio (%)(300 nM)” value: 87.2% for the first, 77.0% for the second.

Target: Human recombinant dopamine D2 receptor (Homo sapiens (Human), UniProt P14416)
Experiment: not given
Details: forskolin stimulation; well without test compound = 100%; CHO/DHFR(-) cells
Procedure: Partial agonistic activity on dopamine D2 receptor using D2 receptor expression cells
Partial agonistic activity on dopamine D2 receptor was evaluated by quantitatively determining cyclic AMP production inhibitory effect of a test compound in dopamine D2 receptor expression cells in which adenosine 3′,5′-cyclic monophosphate (cyclic AMP) production was induced by forskolin stimulation.
Human recombinant dopamine D2 receptor expressing Chinese hamster ovary/DHFR(−) cells were cultured in a culture medium (Iscove's Modified Dulbecco's Medium (IMDM culture medium), 10% fetal bovine serum, 50 I.U./ml penicillin, 50 μg/ml streptomycin, 200 μg/ml geneticin, 0.1 mM sodium hypoxanthine, 16 μM thymidine) at 37° C. and 5% carbon dioxide condition. Cells were seeded at 10^4 cells/well on a 96-well microtiter plate coated with poly-L-lysine and grown under the same condition for 2 days. Each well was washed with 100 μl of a culture medium (IMDM culture medium, 0.1 mM sodium hypoxanthine, 16 μM thymidine).

Human recombinant dopamine D2 receptor, sequence (P14416 whole entry): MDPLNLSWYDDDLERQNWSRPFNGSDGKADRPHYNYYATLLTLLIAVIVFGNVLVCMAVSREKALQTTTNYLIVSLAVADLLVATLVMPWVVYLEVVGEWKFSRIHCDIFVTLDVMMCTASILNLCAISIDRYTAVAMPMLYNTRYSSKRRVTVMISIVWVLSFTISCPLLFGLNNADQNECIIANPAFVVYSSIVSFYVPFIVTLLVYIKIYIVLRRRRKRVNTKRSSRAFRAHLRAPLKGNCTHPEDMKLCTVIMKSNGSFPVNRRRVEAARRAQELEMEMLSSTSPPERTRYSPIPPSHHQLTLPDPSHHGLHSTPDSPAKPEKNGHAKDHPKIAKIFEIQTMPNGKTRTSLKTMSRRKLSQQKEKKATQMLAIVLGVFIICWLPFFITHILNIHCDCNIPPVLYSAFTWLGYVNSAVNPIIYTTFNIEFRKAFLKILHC

With `NCCc1ccc(O)c(O)c1` [dopamine] the “quantity of cyclic AMP as the maximum activity” value was “about 10%”.

— patent USRE48059E1, “Piperazine-substituted benzothiophenes for treatment of mental disorders” (Otsuka Pharmaceutical Co., Ltd., priority 2005, dated 2020)
